Assay results from PubChem BioAssay AID1963986 (Molecular Pharmacology Branch, DTP, NCI, 2024).

System: 171881-019-R-J1-PDC tumor spheroid viability
Experiment: Anticancer human tumor 171881-019-R-J1-PDC patient-derived invasive breast carcinoma cell line growth inhibition [PI3K]
Conditions: spheroids with HUVEC and MSC; for IC50: curve of first compound; for viability, T/C: stronger effect = lower value
Procedure, shortened: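 Tumor cells grown as multi-cell spheroids with HUVEC endothelial cells and MSC fibroblast-like stroma were treated with targeted agents combined with inavolisib, alpelisib, duvelisib or copanlisib. Doses fell in half-log steps from near clinical Cmax, else from 10 microM. Viability was measured.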

[1] = second compound 0.0316 µM, first compound 0.0316 µM
[2] = second compound 0.0316 µM, first compound 0.1 µM
[3] = second compound 0.0316 µM, first compound 0.316 µM
[4] = second compound 0.0316 µM, first compound 1 µM
[5] = second compound 0.0316 µM, first compound 3.16 µM
[6] = second compound 0.0316 µM, first compound 10 µM
[7] = second compound 0.1 µM, first compound 0.0316 µM
[8] = second compound 0.1 µM, first compound 0.1 µM
[9] = second compound 0.1 µM, first compound 0.316 µM
[10] = second compound 0.1 µM, first compound 1 µM
[11] = second compound 0.1 µM, first compound 3.16 µM
[12] = second compound 0.1 µM, first compound 10 µM
[13] = second compound 0.316 µM, first compound 0.0316 µM
[14] = second compound 0.316 µM, first compound 0.1 µM
[15] = second compound 0.316 µM, first compound 0.316 µM
[16] = second compound 0.316 µM, first compound 1 µM
[17] = second compound 0.316 µM, first compound 3.16 µM
[18] = second compound 0.316 µM, first compound 10 µM
[19] = second compound 1 µM, first compound 0.0316 µM
[20] = second compound 1 µM, first compound 0.1 µM
[21] = second compound 1 µM, first compound 0.316 µM
[22] = second compound 1 µM, first compound 1 µM
[23] = second compound 1 µM, first compound 3.16 µM
[24] = second compound 1 µM, first compound 10 µM
[25] = second compound 3.16 µM, first compound 0.0316 µM
[26] = second compound 3.16 µM, first compound 0.1 µM
[27] = second compound 3.16 µM, first compound 0.316 µM
[28] = second compound 3.16 µM, first compound 1 µM
[29] = second compound 3.16 µM, first compound 3.16 µM
[30] = second compound 3.16 µM, first compound 10 µM
[31] = second compound 10 µM, first compound 0.0316 µM
[32] = second compound 10 µM, first compound 0.1 µM
[33] = second compound 10 µM, first compound 0.316 µM
[34] = second compound 10 µM, first compound 1 µM
[35] = second compound 10 µM, first compound 3.16 µM
[36] = second compound 10 µM, first compound 10 µM
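Also: spheroids exposed to compound for 7 days before viability read.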
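For viability, T/C in this document: 100% = DMSO vehicle-treated spheroids.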

C#Cc1c(F)ccc2cc(O)cc(-c3ncc4c(N5CC6CCC(C5)N6)nc(OCC56CCCN5CC(F)C6)nc4c3F)c12 (stereo unspecified) + Cc1nc(NC(=O)N2CCCC2C(N)=O)sc1-c1ccnc(C(C)(C)C(F)(F)F)c1
IC50 (second compound 0.0316 µM): 250 nM
IC50 (second compound 0.1 µM): 115 nM
IC50 (second compound 0.316 µM): < 31.6 nM
IC50 (second compound 1 µM): < 31.6 nM
IC50 (second compound 3.16 µM): < 31.6 nM
IC50 (second compound 10 µM): < 31.6 nM
viability, T/C [1]: 88.3%
viability, T/C [2]: 66.7%
viability, T/C [3]: 44.4%
viability, T/C [4]: 32.9%
viability, T/C [5]: 27.4%
viability, T/C [6]: 20%
viability, T/C [7]: 72.3%
viability, T/C [8]: 51.2%
viability, T/C [9]: 37.7%
viability, T/C [10]: 26.1%
viability, T/C [11]: 20.8%
viability, T/C [12]: 16.4%
viability, T/C [13]: 46%
viability, T/C [14]: 30.1%
viability, T/C [15]: 22.6%
viability, T/C [16]: 15.6%
viability, T/C [17]: 11.7%
viability, T/C [18]: 10.2%
viability, T/C [19]: 27.2%
viability, T/C [20]: 19.1%
viability, T/C [21]: 13%
viability, T/C [22]: 9.14%
viability, T/C [23]: 7.33%
viability, T/C [24]: 5.95%
viability, T/C [25]: 11%
viability, T/C [26]: 7.63%
viability, T/C [27]: 5.67%
viability, T/C [28]: 4.44%
viability, T/C [29]: 4%
viability, T/C [30]: 1.21%
viability, T/C [31]: 2.71%
viability, T/C [32]: 3.19%
viability, T/C [33]: 2.3%
viability, T/C [34]: 2.05%
viability, T/C [35]: 1.56%
viability, T/C [36]: 0.74%

CC(Cn1ccc(-c2ccc(C#N)c(Cl)c2)n1)NC(=O)c1cc(C(C)O)[nH]n1 (stereo unspecified) + Cc1nc(NC(=O)N2CCCC2C(N)=O)sc1-c1ccnc(C(C)(C)C(F)(F)F)c1
IC50 (second compound 0.0316 µM): > 10000 nM
IC50 (second compound 0.1 µM): > 10000 nM
IC50 (second compound 0.316 µM): 4160 nM
IC50 (second compound 1 µM): < 31.6 nM
IC50 (second compound 3.16 µM): < 31.6 nM
IC50 (second compound 10 µM): < 31.6 nM
viability, T/C [1]: 101%
viability, T/C [2]: 85.3%
viability, T/C [3]: 87.7%
viability, T/C [4]: 93.7%
viability, T/C [5]: 85%
viability, T/C [6]: 62.8%
viability, T/C [7]: 74.8%
viability, T/C [8]: 72.9%
viability, T/C [9]: 81.3%
viability, T/C [10]: 80%
viability, T/C [11]: 75.6%
viability, T/C [12]: 59.1%
viability, T/C [13]: 55.5%
viability, T/C [14]: 55.3%
viability, T/C [15]: 50.7%
viability, T/C [16]: 57.7%
viability, T/C [17]: 52.5%
viability, T/C [18]: 40.3%
viability, T/C [19]: 34.4%
viability, T/C [20]: 32.9%
viability, T/C [21]: 33.4%
viability, T/C [22]: 30.8%
viability, T/C [23]: 30.5%
viability, T/C [24]: 24.4%
viability, T/C [25]: 14.5%
viability, T/C [26]: 13.7%
viability, T/C [27]: 15.3%
viability, T/C [28]: 13.1%
viability, T/C [29]: 14.2%
viability, T/C [30]: 11.9%
viability, T/C [31]: 3.76%
viability, T/C [32]: 3.6%
viability, T/C [33]: 3.61%
viability, T/C [34]: 3.9%
viability, T/C [35]: 3.74%
viability, T/C [36]: 3.87%

CC1(C)CCC(Nc2ncc(C(F)(F)F)c(-c3c[nH]c4c(P(C)(C)=O)c(C#N)ccc34)n2)CN1 (stereo unspecified) + Cc1nc(NC(=O)N2CCCC2C(N)=O)sc1-c1ccnc(C(C)(C)C(F)(F)F)c1
IC50 (second compound 0.0316 µM): 5340 nM
IC50 (second compound 0.1 µM): 4400 nM
IC50 (second compound 0.316 µM): 1030 nM
IC50 (second compound 1 µM): < 31.6 nM
IC50 (second compound 3.16 µM): < 31.6 nM
IC50 (second compound 10 µM): < 31.6 nM
viability, T/C [1]: 66.7%
viability, T/C [2]: 65%
viability, T/C [3]: 73.8%
viability, T/C [4]: 79.6%
viability, T/C [5]: 77.5%
viability, T/C [6]: 22.9%
viability, T/C [7]: 59.4%
viability, T/C [8]: 65%
viability, T/C [9]: 62.9%
viability, T/C [10]: 71.4%
viability, T/C [11]: 63.4%
viability, T/C [12]: 16.3%
viability, T/C [13]: 46.7%
viability, T/C [14]: 49%
viability, T/C [15]: 49.6%
viability, T/C [16]: 55.5%
viability, T/C [17]: 47.8%
viability, T/C [18]: 7.89%
viability, T/C [19]: 31.4%
viability, T/C [20]: 30.6%
viability, T/C [21]: 33.4%
viability, T/C [22]: 32.7%
viability, T/C [23]: 28.7%
viability, T/C [24]: 3.22%
viability, T/C [25]: 15.9%
viability, T/C [26]: 17%
viability, T/C [27]: 17.7%
viability, T/C [28]: 18.8%
viability, T/C [29]: 13.3%
viability, T/C [30]: 1.08%
viability, T/C [31]: 4.21%
viability, T/C [32]: 4.48%
viability, T/C [33]: 5.01%
viability, T/C [34]: 5.05%
viability, T/C [35]: 2.85%
viability, T/C [36]: 0.32%
